Measured values as given in article PMC10653840, “A new class of protein sensor links spirochete pleomorphism, persistence, and chemotaxis” (mBio, 2023).

Legend:
CheWS [1] = biological target: T1, CheWS (Treponema denticola, UniProt F7IUZ1); experiment: isothermal titration calorimetry with purified domain; assay type: binding; parameters: gene cheW-1; isolated CheRlike domain (residues 203–444)
Target sequence in this assay (F7IUZ1 entry or part of it): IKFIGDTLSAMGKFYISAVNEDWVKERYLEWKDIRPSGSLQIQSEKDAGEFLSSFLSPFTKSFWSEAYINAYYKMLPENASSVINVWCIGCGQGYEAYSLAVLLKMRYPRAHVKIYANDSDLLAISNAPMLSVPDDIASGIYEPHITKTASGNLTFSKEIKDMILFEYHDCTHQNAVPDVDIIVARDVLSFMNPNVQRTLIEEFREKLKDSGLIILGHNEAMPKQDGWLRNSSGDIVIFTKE

CheWS [2] = biological target: T1, CheWS; experiment: isothermal titration calorimetry with purified protein; assay type: binding; parameters: gene cheW-1; full-length CheWS (CheW-CheRlike), poly-His tag
Target sequence in this assay (F7IUZ1 entry or part of it): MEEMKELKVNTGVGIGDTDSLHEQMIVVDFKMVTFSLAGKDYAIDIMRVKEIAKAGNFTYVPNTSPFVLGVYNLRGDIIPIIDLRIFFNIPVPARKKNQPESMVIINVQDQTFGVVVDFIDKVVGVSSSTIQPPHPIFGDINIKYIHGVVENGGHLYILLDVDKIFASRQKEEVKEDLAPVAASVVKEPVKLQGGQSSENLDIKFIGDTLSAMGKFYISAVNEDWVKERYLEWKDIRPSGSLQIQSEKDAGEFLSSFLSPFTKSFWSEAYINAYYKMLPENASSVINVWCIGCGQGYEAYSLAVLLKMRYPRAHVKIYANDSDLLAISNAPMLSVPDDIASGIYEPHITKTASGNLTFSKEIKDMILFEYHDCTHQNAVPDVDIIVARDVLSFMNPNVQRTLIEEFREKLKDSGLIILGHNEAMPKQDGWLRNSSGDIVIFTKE

| SMILES | Kd (CheWS [1]) [µM] | Kd (CheWS [2]) [µM] |
| --- | --- | --- |
| C[S+](CC[C@H](N)C(=O)[O-])C[C@H]1O[C@@H](n2cnc3c(N)ncnc32)[C@H](O)[C@@H]1O (some centres unmarked) [SAM, S-adenosylmethionine] | ~18 | – |
| Nc1ncnc2c1ncn2[C@@H]1O[C@H](CSCC[C@H](N)C(=O)O)[C@@H](O)[C@H]1O [SAH, S-adenosylhomocysteine] | – | ~17 |
